Reference: patent US12570642B2, “GLP-IR modulating compounds” (Gilead Sciences, Inc., priority 2021, dated 2026)

What follows are compounds tested against GLP-1R (Homo sapiens, UniProt P43220) (assay: GLP-1R Activation - cAMP Assay). Conditions: cAMP increase in CHO cells stably expressing GLP-1R; each compound run on one of the two cAMP assays (Assay 1 or Assay 2, not specified).
Format: cell-based
In short: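 CHO cells stably expressing GLP-1R, plated at 1,000 cells/well overnight, then equilibrated 1 h in HBSS with 20 mM Hepes and 0.1% BSA. Agonist added as 10-point dose response for 30 min at 37 °C. cAMP measured by HTRF (Cisbio Gs Dynamic kit); EC50 from sigmoidal fit.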

GLP-1R, sequence (P43220 24-463): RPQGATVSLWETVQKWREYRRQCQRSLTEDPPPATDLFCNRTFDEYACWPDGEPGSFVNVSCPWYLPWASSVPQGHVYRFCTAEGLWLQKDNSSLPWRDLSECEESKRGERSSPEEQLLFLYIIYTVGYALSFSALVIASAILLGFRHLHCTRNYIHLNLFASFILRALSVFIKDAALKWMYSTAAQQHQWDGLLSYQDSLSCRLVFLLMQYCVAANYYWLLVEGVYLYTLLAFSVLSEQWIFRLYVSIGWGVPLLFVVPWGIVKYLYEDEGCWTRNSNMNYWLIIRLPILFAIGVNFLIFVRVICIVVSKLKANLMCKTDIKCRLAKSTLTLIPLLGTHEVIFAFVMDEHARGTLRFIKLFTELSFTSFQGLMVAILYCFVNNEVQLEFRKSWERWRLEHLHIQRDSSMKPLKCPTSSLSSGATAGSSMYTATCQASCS

EC50	SMILES
1.21 nM	CO[C@H](C)Cn1c(Cc2cc(F)c(-c3cccc(OCc4ccc(C#N)cc4F)n3)cc2F)nc2c(F)cc(C(=O)O)cc21 [Example 355, (R)-2-(4-(6-((4-cyano-2-fluorobenzyl)oxy)pyridin-2-yl)-2,5-difluorobenzyl)-4-fluoro-1-(2-methoxypropyl)-1H-benzo[d]imidazole-6-carboxylic acid]
0.171 nM	CC1(C)COC[C@H]1n1c(Cc2cc(F)c(-c3cccc(OCc4ccc(C(F)F)cc4)n3)cc2F)nc2ccc(C(=O)O)cc21 [Example 357, (S)-2-(4-(6-((4-(difluoromethyl)benzyl)oxy)pyridin-2-yl)-2,5-difluorobenzyl)-1-(4,4-dimethyltetrahydrofuran-3-yl)-1H-benzo[d]imidazole-6-carboxylic acid]
0.124 nM	CC1(C)COC[C@H]1n1c(Cc2cc(F)c(-c3cccc(OCc4ccc(C(F)(F)F)cc4)n3)cc2F)nc2ccc(C(=O)O)cc21 [Example 358, (S)-2-(2,5-difluoro-4-(6-((4-(trifluoromethyl)benzyl)oxy)pyridin-2-yl)benzyl)-1-(4,4-dimethyltetrahydrofuran-3-yl)-1H-benzo[d]imidazole-6-carboxylic acid]
0.079 nM	CC1(C)COC[C@H]1n1c(Cc2cc(F)c(-c3cccc(OCc4ccc(F)cc4)n3)cc2F)nc2ccc(C(=O)O)cc21 [Example 360, (S)-2-(2,5-difluoro-4-(6-((4-fluorobenzyl)oxy)pyridin-2-yl)benzyl)-1-(4,4-dimethyltetrahydrofuran-3-yl)-1H-benzo[d]imidazole-6-carboxylic acid]
0.131 nM	Cc1ccc(COc2cccc(-c3cc(F)c(Cc4nc5ccc(C(=O)O)cc5n4[C@@H]4COCC4(C)C)cc3F)n2)cc1 [Example 361, (S)-2-(2,5-difluoro-4-(6-((4-methylbenzyl)oxy)pyridin-2-yl)benzyl)-1-(4,4-dimethyltetrahydrofuran-3-yl)-1H-benzo[d]imidazole-6-carboxylic acid]
0.266 nM	CC1(C)COC[C@H]1n1c(Cc2c(F)cc(-c3cccc(OCc4ccc(C#N)cc4)n3)cc2F)nc2ccc(C(=O)O)cc21 [Example 362, (S)-2-(4-(6-((4-cyanobenzyl)oxy)pyridin-2-yl)-2,6-difluorobenzyl)-1-(4,4-dimethyltetrahydrofuran-3-yl)-1H-benzo[d]imidazole-6-carboxylic acid]
0.369 nM	CC1(C)COC[C@H]1n1c(Cc2cc(F)c(-c3cccc(OCc4ccccc4)n3)cc2F)nc2ccc(C(=O)O)cc21 [Example 363, (S)-2-(4-(6-(benzyloxy)pyridin-2-yl)-2,5-difluorobenzyl)-1-(4,4-dimethyltetrahydrofuran-3-yl)-1H-benzo[d]imidazole-6-carboxylic acid]
0.158 nM	CC1(C)COC[C@H]1n1c(Cc2ccc(-c3nc(OCc4ccc(C#N)cc4F)ccc3F)cc2F)nc2ccc(C(=O)O)cc21 [Example 364, (S)-2-(4-(6-((4-cyano-2-fluorobenzyl)oxy)-3-fluoropyridin-2-yl)-2-fluorobenzyl)-1-(4,4-dimethyltetrahydrofuran-3-yl)-1H-benzo[d]imidazole-6-carboxylic acid]
0.124 nM	CC1(C)COC[C@H]1n1c(Cc2cc(F)c(-c3nc(OCc4ccc(C#N)cc4F)ccc3F)cc2F)nc2c(F)cc(C(=O)O)cc21 [Example 365, (S)-2-(4-(6-((4-cyano-2-fluorobenzyl)oxy)-3-fluoropyridin-2-yl)-2,5-difluorobenzyl)-1-(4,4-dimethyltetrahydrofuran-3-yl)-4-fluoro-1H-benzo[d]imidazole-6-carboxylic acid]
1.17 nM	COCCn1c(Cc2cc(F)c(-c3ccc(F)c(OCc4ccc(C#N)cc4)n3)cc2F)nc2ccc(C(=O)O)c(F)c21 [Example 366, 2-(4-(6-((4-cyanobenzyl)oxy)-5-fluoropyridin-2-yl)-2,5-difluorobenzyl)-7-fluoro-1-(2-methoxyethyl)-1H-benzo[d]imidazole-6-carboxylic acid]
0.274 nM	CC1(C)COC[C@H]1n1c(Cc2cc(F)c(-c3cccc(OCc4ccc(Cl)cc4)n3)cc2F)nc2c(F)cc(C(=O)O)cc21 [Example 367, (S)-2-(4-(6-((4-chlorobenzyl)oxy)pyridin-2-yl)-2,5-difluorobenzyl)-1-(4,4-dimethyltetrahydrofuran-3-yl)-4-fluoro-1H-benzo[d]imidazole-6-carboxylic acid]
0.562 nM	CO[C@H](C)Cn1c(Cc2cc(F)c(-c3ccc(F)c(OCc4ccc(C#N)cc4F)n3)cc2F)nc2c(F)cc(C(=O)O)cc21 [Example 368, (R)-2-(4-(6-((4-cyano-2-fluorobenzyl)oxy)-5-fluoropyridin-2-yl)-2,5-difluorobenzyl)-4-fluoro-1-(2-methoxypropyl)-1H-benzo[d]imidazole-6-carboxylic acid]
0.364 nM	CC1(C)COC[C@H]1n1c(Cc2ccc(-c3ccc(F)c(OCc4ccc(C#N)cc4F)n3)c(F)c2)nc2ccc(C(=O)O)cc21 [Example 369, (S)-2-(4-(6-((4-cyano-2-fluorobenzyl)oxy)-5-fluoropyridin-2-yl)-3-fluorobenzyl)-1-(4,4-dimethyltetrahydrofuran-3-yl)-1H-benzo[d]imidazole-6-carboxylic acid]
0.042 nM	CC1(C)COC[C@H]1n1c(Cc2ccc(-c3ccc(F)c(OCc4ccc(C#N)cc4)n3)cc2F)nc2ccc(C(=O)O)cc21 [Example 370, (S)-2-(4-(6-((4-cyanobenzyl)oxy)-5-fluoropyridin-2-yl)-2-fluorobenzyl)-1-(4,4-dimethyltetrahydrofuran-3-yl)-1H-benzo[d]imidazole-6-carboxylic acid]
0.127 nM	CC1(C)COC[C@H]1n1c(Cc2ccc(-c3cccc(OCc4ccc(Cl)cc4)n3)cc2F)nc2ccc(C(=O)O)cc21 [Example 371, (S)-2-(4-(6-((4-chlorobenzyl)oxy)pyridin-2-yl)-2-fluorobenzyl)-1-(4,4-dimethyltetrahydrofuran-3-yl)-1H-benzo[d]imidazole-6-carboxylic acid]
0.163 nM	CC1(C)COC[C@H]1n1c(Cc2ccc(-c3cccc(OCc4ccc(C#N)cc4)n3)cc2F)nc2c(F)cc(C(=O)O)cc21 [Example 372, (S)-2-(4-(6-((4-cyanobenzyl)oxy)pyridin-2-yl)-2-fluorobenzyl)-1-(4,4-dimethyltetrahydrofuran-3-yl)-4-fluoro-1H-benzo[d]imidazole-6-carboxylic acid]
0.294 nM	CC1(C)COC[C@H]1n1c(Cc2ccc(-c3cccc(OCc4ccc(C#N)cc4)n3)cc2F)nc2ccc(C(=O)O)cc21 [Example 373, (S)-2-(4-(6-((4-cyanobenzyl)oxy)pyridin-2-yl)-2-fluorobenzyl)-1-(4,4-dimethyltetrahydrofuran-3-yl)-1H-benzo[d]imidazole-6-carboxylic acid]
0.571 nM	COCCn1c(Cc2cc(F)c(-c3cccc(OCc4ccc(-n5ccnn5)cc4F)n3)cc2F)nc2ccc(C(=O)O)c(F)c21 [Example 374, 2-(2,5-difluoro-4-(6-((2-fluoro-4-(1H-1,2,3-triazol-1-yl)benzyl)oxy)pyridin-2-yl)benzyl)-7-fluoro-1-(2-methoxyethyl)-1H-benzo[d]imidazole-6-carboxylic acid]
0.272 nM	COCCn1c(Cc2cc(F)c(-c3cccc(OCc4ccc(C#N)cc4)n3)cc2F)nc2ccc(C(=O)O)c(F)c21 [Example 375, 2-(4-(6-((4-cyanobenzyl)oxy)pyridin-2-yl)-2,5-difluorobenzyl)-7-fluoro-1-(2-methoxyethyl)-1H-benzo[d]imidazole-6-carboxylic acid]
0.056 nM	CC1(C)COC[C@H]1n1c(Cc2cc(F)c(-c3cccc(OCc4ccc(C#N)cc4)n3)cc2F)nc2c(F)cc(C(=O)O)cc21 [Example 376, (S)-2-(4-(6-((4-cyanobenzyl)oxy)pyridin-2-yl)-2,5-difluorobenzyl)-1-(4,4-dimethyltetrahydrofuran-3-yl)-4-fluoro-1H-benzo[d]imidazole-6-carboxylic acid]
0.188 nM	COCCn1c(Cc2c(F)cc(-c3cccc(OCc4ccc(Cl)cc4)n3)c(F)c2F)nc2c(F)cc(C(=O)O)cc21 [Example 377, 2-(4-(6-((4-chlorobenzyl)oxy)pyridin-2-yl)-2,3,6-trifluorobenzyl)-4-fluoro-1-(2-methoxyethyl)-1H-benzo[d]imidazole-6-carboxylic acid]
0.321 nM	COCCn1c(Cc2c(F)cc(-c3cccc(OCc4ccc(C#N)cc4)n3)c(F)c2F)nc2c(F)cc(C(=O)O)cc21 [Example 378, 2-(4-(6-((4-cyanobenzyl)oxy)pyridin-2-yl)-2,3,6-trifluorobenzyl)-4-fluoro-1-(2-methoxyethyl)-1H-benzo[d]imidazole-6-carboxylic acid]
0.267 nM	CO[C@H](C)Cn1c(Cc2cc(F)c(-c3cccc(OCc4ccc(C#N)cc4)n3)cc2F)nc2c(F)cc(C(=O)O)cc21 [Example 381, (R)-2-(4-(6-((4-cyanobenzyl)oxy)pyridin-2-yl)-2,5-difluorobenzyl)-4-fluoro-1-(2-methoxypropyl)-1H-benzo[d]imidazole-6-carboxylic acid]
0.604 nM	COCCn1c(Cc2cc(F)c(-c3cccc(OCc4ccc(C#N)cc4)n3)cc2F)nc2c(F)cc(C(=O)O)cc21 [Example 382, 2-(4-(6-((4-cyanobenzyl)oxy)pyridin-2-yl)-2,5-difluorobenzyl)-4-fluoro-1-(2-methoxyethyl)-1H-benzo[d]imidazole-6-carboxylic acid]
0.205 nM	CC1(C)COCC1n1c(Cc2ccc(-c3cccc(OCc4ccc(C#N)cc4F)n3)cc2F)nc2ccc(C(=O)O)cc21 (centres unmarked) [Example 384, 2-(4-(6-((4-cyano-2-fluorobenzyl)oxy)pyridin-2-yl)-2-fluorobenzyl)-1-(4,4-dimethyltetrahydrofuran-3-yl)-1H-benzo[d]imidazole-6-carboxylic acid]
0.093 nM	COCCn1c(Cc2cc(F)c(-c3cccc(OCc4ccc(Cl)cc4)n3)cc2F)nc2c(F)cc(C(=O)O)cc21 [Example 386, 2-(4-(6-((4-chlorobenzyl)oxy)pyridin-2-yl)-2,5-difluorobenzyl)-4-fluoro-1-(2-methoxyethyl)-1H-benzo[d]imidazole-6-carboxylic acid]
